Source: ChEMBL document CHEMBL1139279, “3,4-Disubstituted indole acylsulfonamides: a novel series of potent and selective human EP3 receptor antagonists” (Bioorg Med Chem Lett, 2009)

Legend:
Homo sapiens [1] = species on record: Homo sapiens; experiment: Selectivity ratio of IC50 for human EP1 receptor to IC50 for human EP3 receptor
[2] = molecular target: T1, Prostaglandin E2 receptor EP3 subtype (Homo sapiens, UniProt P43115); experiment: Displacement of [3H]PGE2 from human EP3 receptor in presence of 10% human serum
T1 sequence (P43115 whole entry): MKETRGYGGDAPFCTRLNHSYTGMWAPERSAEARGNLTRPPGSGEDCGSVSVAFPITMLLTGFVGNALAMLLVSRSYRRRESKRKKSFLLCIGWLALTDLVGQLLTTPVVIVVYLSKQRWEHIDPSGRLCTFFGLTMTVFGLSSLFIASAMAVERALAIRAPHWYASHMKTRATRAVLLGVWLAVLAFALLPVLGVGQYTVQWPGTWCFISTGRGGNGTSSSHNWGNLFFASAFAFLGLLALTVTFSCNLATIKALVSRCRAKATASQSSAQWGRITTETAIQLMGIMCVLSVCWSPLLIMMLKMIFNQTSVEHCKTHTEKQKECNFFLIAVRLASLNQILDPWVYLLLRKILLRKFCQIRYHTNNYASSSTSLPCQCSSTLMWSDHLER

Homo sapiens [3] = species on record: Homo sapiens; experiment: Selectivity ratio of IC50 for human EP2 receptor to IC50 for human EP3 receptor
[4] = molecular target: T1, Prostaglandin E2 receptor EP3 subtype; experiment: Displacement of [3H]PGE2 from human EP3 receptor
Homo sapiens [5] = species on record: Homo sapiens; experiment: Selectivity ratio of IC50 for human FP receptor to IC50 for human EP3 receptor
Rattus norvegicus = species on record: Rattus norvegicus; experiment: Ex vivo inhibition of platelet aggregation in rat platelet-rich plasma; type: functional, organism-based
Homo sapiens [6] = species on record: Homo sapiens; experiment: Selectivity ratio of IC50 for human EP4 receptor to IC50 for human EP3 receptor
[7] = molecular target: T2, Prostaglandin E2 receptor EP3 subtype (Mus musculus, UniProt P30557); experiment: Displacement of [3H]PGE2 from mouse EP3 receptor
T2 sequence (P30557 whole entry): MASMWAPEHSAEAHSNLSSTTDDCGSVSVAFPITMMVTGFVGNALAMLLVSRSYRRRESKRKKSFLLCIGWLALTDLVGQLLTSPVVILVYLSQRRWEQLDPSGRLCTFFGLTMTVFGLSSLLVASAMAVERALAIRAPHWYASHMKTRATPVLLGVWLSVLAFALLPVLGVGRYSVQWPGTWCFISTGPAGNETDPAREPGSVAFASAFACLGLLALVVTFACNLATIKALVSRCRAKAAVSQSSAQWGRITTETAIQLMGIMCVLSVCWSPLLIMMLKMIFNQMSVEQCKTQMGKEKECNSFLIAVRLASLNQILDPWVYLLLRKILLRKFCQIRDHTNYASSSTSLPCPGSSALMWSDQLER

Liver microsomes = experiment: Metabolic stability in rat liver microsomes at 5 uM after 30 mins; type: ADME, Microsome; details: 0.5 h
[8] = molecular target: T1, Prostaglandin E2 receptor EP3 subtype; experiment: Antagonist activity at human EP3 receptor assessed as cAMP production by cell-based assay; type: functional
Homo sapiens [9] = species on record: Homo sapiens; experiment: Selectivity ratio of IC50 for human IP receptor to IC50 for human EP3 receptor
[10] = Metabolic stability in human liver microsomes at 5 uM after 30 mins; type: ADME, Microsome; details: read-out: Activity

Compound: O=C(COc1cccc2[nH]cc(S(=O)(=O)c3ccc(Cl)c(Cl)c3)c12)NS(=O)(=O)c1cc(Cl)c(Cl)s1
- Ratio IC50 (Homo sapiens [1]): 5190
- fold shift [2]: 3.6
- Ratio IC50 (Homo sapiens [3]): 1450
- IC50 [4]: 4.7 nM
- Ratio IC50 (Homo sapiens [5]): 384
- IC50 (Rattus norvegicus): 136 nM
- Ratio IC50 (Homo sapiens [6]): 4220
- IC50 [7]: 2 nM
- Activity (Liver microsomes): 68.8%
- IC50 [8]: 1 nM
- Ratio IC50 (Homo sapiens [9]): 2710
- remaining at 0.5 h, 5 µM [10]: 69.7%

Compound: O=C(COc1cccc2[nH]cc(S(=O)(=O)c3ccc4ccccc4n3)c12)NS(=O)(=O)c1cc(Cl)c(Cl)s1
- Activity (Liver microsomes): 68%
- remaining at 0.5 h, 5 µM [10]: 60%

Compound: O=C(COc1cccc2[nH]cc(Sc3ccc4ccccc4n3)c12)NS(=O)(=O)c1cc(Cl)c(Cl)s1
- Activity (Liver microsomes): 35%
- remaining at 0.5 h, 5 µM [10]: 23%

Compound: Cc1ccc(S(=O)(=O)c2c[nH]c3cccc(OCC(=O)NS(=O)(=O)c4cc(Cl)c(Cl)s4)c23)c(C)c1
- fold shift [2]: 33.2
- IC50 [4]: 5.7 nM

Compound: Cn1nnnc1S(=O)(=O)c1c[nH]c2cccc(OCC(=O)NS(=O)(=O)c3cc(Cl)c(Cl)s3)c12
- IC50 [4]: 88.4 nM

Compound: NC(=O)Cc1ccc(S(=O)(=O)c2c[nH]c3cccc(OCC(=O)NS(=O)(=O)c4cc(Cl)c(Cl)s4)c23)cc1
- fold shift [2]: 5
- IC50 [4]: 27.8 nM

Compound: Cn1c(Sc2c[nH]c3cccc(OCC(=O)NS(=O)(=O)c4cc(Cl)c(Cl)s4)c23)nc2ccccc21
- fold shift [2]: 10.5
- IC50 [4]: 2.5 nM

Compound: COc1ccc(S(=O)(=O)c2c[nH]c3cccc(OCC(=O)NS(=O)(=O)c4cc(Cl)c(Cl)s4)c23)cc1OC
- IC50 [4]: 11.4 nM

Compound: O=C(COc1cccc2[nH]cc(Sc3ccc(Cl)cc3)c12)NS(=O)(=O)c1cc(Cl)c(Cl)s1
- Activity (Liver microsomes): 14%
- remaining at 0.5 h, 5 µM [10]: 52%

Compound: O=C(COc1cccc2[nH]cc(S(=O)(=O)c3nc[nH]n3)c12)NS(=O)(=O)c1cc(Cl)c(Cl)s1
- IC50 [4]: 236 nM

Compound: O=C(COc1cccc2[nH]cc(S(=O)(=O)c3ccc(Cl)cc3)c12)NS(=O)(=O)c1cc(Cl)c(Cl)s1
- Activity (Liver microsomes): 98%
- remaining at 0.5 h, 5 µM [10]: 75%

Compound: O=C(COc1cccc2[nH]cc(Sc3ccccc3Cl)c12)NS(=O)(=O)c1cc(Cl)c(Cl)s1
- fold shift [2]: 5.8
- IC50 [4]: 13.7 nM

Compound: Cc1nnc(Sc2c[nH]c3cccc(OCC(=O)NS(=O)(=O)c4cc(Cl)c(Cl)s4)c23)s1
- IC50 [4]: 36.7 nM

Compound: O=C(COc1cccc2[nH]cc(Sc3ccc4ccccc4c3)c12)NS(=O)(=O)c1cccs1
- fold shift [2]: 27.5
- IC50 [4]: 3 nM

Compound: Cc1ccc(Sc2c[nH]c3cccc(OCC(=O)NS(=O)(=O)c4cc(Cl)c(Cl)s4)c23)c(C)c1
- Ratio IC50 (Homo sapiens [1]): 13100
- fold shift [2]: 5.2
- Ratio IC50 (Homo sapiens [3]): 1290
- IC50 [4]: 1.3 nM
- Ratio IC50 (Homo sapiens [5]): 401
- Ratio IC50 (Homo sapiens [6]): 1860
- Ratio IC50 (Homo sapiens [9]): 31600

Compound: COc1ccc(Sc2c[nH]c3cccc(OCC(=O)NS(=O)(=O)c4cc(Cl)c(Cl)s4)c23)cc1
- fold shift [2]: 22.6
- IC50 [4]: 0.5 nM

Compound: COc1ccc(S(=O)(=O)c2c[nH]c3cccc(OCC(=O)NS(=O)(=O)c4cc(Cl)c(Cl)s4)c23)cc1
- IC50 [4]: 30 nM

Compound: O=C(COc1cccc2[nH]cc(Sc3ccc(Cl)c(Cl)c3)c12)NS(=O)(=O)c1cc(Cl)c(Cl)s1
- Ratio IC50 (Homo sapiens [1]): 10800
- fold shift [2]: 1.1
- Ratio IC50 (Homo sapiens [3]): 950
- IC50 [4]: 1.3 nM
- Ratio IC50 (Homo sapiens [5]): 596
- IC50 (Rattus norvegicus): 358 nM
- Ratio IC50 (Homo sapiens [6]): 1770
- IC50 [7]: 15.5 nM
- Activity (Liver microsomes): 74%
- IC50 [8]: 0.3 nM
- Ratio IC50 (Homo sapiens [9]): 4480
- remaining at 0.5 h, 5 µM [10]: 46%

Compound: O=C(COc1cccc2[nH]cc(Sc3nc4ccccc4s3)c12)NS(=O)(=O)c1cc(Cl)c(Cl)s1
- fold shift [2]: 9.8
- Ratio IC50 (Homo sapiens [3]): 1660
- IC50 [4]: 7.6 nM
- Ratio IC50 (Homo sapiens [5]): 300
- Ratio IC50 (Homo sapiens [6]): 2390
- Ratio IC50 (Homo sapiens [9]): 1060

Compound: COc1ccccc1Sc1c[nH]c2cccc(OCC(=O)NS(=O)(=O)c3cc(Cl)c(Cl)s3)c12
- fold shift [2]: 13.2
- IC50 [4]: 24 nM

Compound: O=C(COc1cccc2[nH]cc(S(=O)(=O)c3ccc4ccccc4c3)c12)NS(=O)(=O)c1cccc(Cl)c1
- IC50 [4]: 5.9 nM

Compound: Cn1nnnc1Sc1c[nH]c2cccc(OCC(=O)NS(=O)(=O)c3cc(Cl)c(Cl)s3)c12
- fold shift [2]: 58.3
- IC50 [4]: 8.2 nM

Compound: O=C(COc1cccc2[nH]cc(S(=O)(=O)c3ccc(Cl)cc3Cl)c12)NS(=O)(=O)c1cc(Cl)c(Cl)s1
- Activity (Liver microsomes): 72%
- remaining at 0.5 h, 5 µM [10]: 79%

Compound: O=C(COc1cccc2[nH]cc(Sc3ccc(Cl)cc3Cl)c12)NS(=O)(=O)c1cc(Cl)c(Cl)s1
- Ratio IC50 (Homo sapiens [1]): 3520
- fold shift [2]: 0.2
- Ratio IC50 (Homo sapiens [3]): 6230
- IC50 [4]: 27.6 nM
- Ratio IC50 (Homo sapiens [5]): 2030
- Ratio IC50 (Homo sapiens [6]): 8880
- Activity (Liver microsomes): 0%
- Ratio IC50 (Homo sapiens [9]): 3350
- remaining at 0.5 h, 5 µM [10]: 37%

Compound: O=C(COc1cccc2[nH]cc(S(=O)(=O)c3ccc(F)cc3Cl)c12)NS(=O)(=O)c1cc(Cl)c(Cl)s1
- fold shift [2]: 10.7
- IC50 [4]: 20.2 nM

Compound: O=C(COc1cccc2[nH]cc(Sc3ccc4ccccc4c3)c12)NS(=O)(=O)c1cccc(Cl)c1
- Ratio IC50 (Homo sapiens [1]): 12300
- fold shift [2]: 2.2
- Ratio IC50 (Homo sapiens [3]): 1090
- IC50 [4]: 2 nM
- Ratio IC50 (Homo sapiens [5]): 1030
- Ratio IC50 (Homo sapiens [6]): 1360
- Ratio IC50 (Homo sapiens [9]): 1300

Compound: O=C(COc1cccc2[nH]cc(Sc3ccc4ccccc4c3)c12)NS(=O)(=O)c1ccccc1Cl
- fold shift [2]: 48.7
- IC50 [4]: 1.4 nM

Compound: COc1ccc(S(=O)(=O)NC(=O)COc2cccc3[nH]cc(S(=O)(=O)c4ccc5ccccc5c4)c23)cc1
- IC50 [4]: 544 nM
